Source: patent publication US12037324B2, “Biarylmethyl heterocycles” (Université de Montréal, priority 2016, dated 2024)
Like-named read-outs stand apart in the source and are kept apart here.

How the values were obtained:
hAT1R [1] = biological target: T1, hAT1R (Homo sapiens, UniProt P30556); test: cell-based; conditions: agonist mode; for EC50: read-out: BRET P63 EC50
T1 sequence (P30556 1-359): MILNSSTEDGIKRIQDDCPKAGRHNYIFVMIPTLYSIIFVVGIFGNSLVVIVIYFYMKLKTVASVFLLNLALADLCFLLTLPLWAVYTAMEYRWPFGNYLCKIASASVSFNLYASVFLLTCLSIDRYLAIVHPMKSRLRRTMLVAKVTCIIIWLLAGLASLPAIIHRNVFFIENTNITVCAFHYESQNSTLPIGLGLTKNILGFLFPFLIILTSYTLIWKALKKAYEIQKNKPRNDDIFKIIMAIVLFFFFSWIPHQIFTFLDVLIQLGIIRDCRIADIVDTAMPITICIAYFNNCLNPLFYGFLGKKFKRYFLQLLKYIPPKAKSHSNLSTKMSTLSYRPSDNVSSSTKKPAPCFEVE

hAT1R [2] = biological target: T1, hAT1R; test: cell-based
AGTR1 [3] = biological target: T2, AGTR1 (Homo sapiens, UniProt P30556); test: DiscoveRx β-arrestin2 recruitment assay (enzyme complementation, Pathunter CHO-K1 AGTR1 β-arrestin cell line); format: cell-based; conditions: DiscoveRx β-arrestin2 recruitment; for DiscoveRx β-arrestin2 Ymax (%): maximal response
T2 construct: host or cells: Pathunter CHO-K1 AGTR1 β-arrestin cell line (CHO-K1)
T2 sequence (P30556 1-359): T1 sequence (P30556 1-359)
Procedure, shortened: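 CHO-K1 cells expressing AGTR1 with β-arrestin2 enzyme-complementation reporter, plated 14-16 h ahead in 1% serum medium, then exposed to compounds for 90 min at 37° C. Chemiluminescence read after 1 h detection. EC50 (agonist) or IC50 (antagonist) from 4-parameter logistic fit; activity as percentage of All maximal effect.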

AGTR1 [4] = biological target: T2, AGTR1; test: DiscoveRx IP1 accumulation assay (HTRF), agonist mode, Pathunter CHO-K1 AGTR1 β-arrestin cell line; format: cell-based; conditions: for EC50: read-out: IP-1 EC50
Procedure, shortened: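 Agonist mode in CHO-K1 AGTR1 β-arrestin cells plated 14-16 h before; compounds at varying concentrations for 90 min at 37° C, IP1 accumulation read by HTRF (D2-conjugate and anti-IP1 cryptate, 20 min room temperature). EC50 from 4-parameter logistic fit; activity given as percentage of maximal AII effect.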

[5] = Low AT1R Expression, read-out: BRET β-Arrestin2 Low AT1R Expression EC50
[6] = section of the 42nd table ending at r951, example numbering restarts after the DiscoveRx section, read-out: β-arrestin2 EC50

Row | SMILES | BRET P63 Ymax (hAT1R [1]) | EC50 (hAT1R [1]) | BRET β-Arrestin2 Low AT1R Expression Ymax (%) (hAT1R [2]; Low AT1R Expression) | EC50 (hAT1R [2]; [5]) | EC50 (AGTR1 [3]) | DiscoveRx β-arrestin2 Ymax (%) (AGTR1 [3]) | IP-1 Ymax (%) (AGTR1 [4]) | EC50 (AGTR1 [4]) | EC50 (hAT1R [2]; [6])
1 | CCCC1=NC2(CCCC2)C(=O)N1Cc1ccc(-c2cc(-c3cc(OC)ccn3)ccc2-c2nn[nH]n2)cc1 [Example 115, 3-((5′-(4-methoxypyridin-2-yl)-2′-(2H-tetrazol-5-yl)-[1,1′-biphenyl]-4-yl)methyl)-2-propyl-1,3-diazaspiro[4.4]non-1-en-4-one] | 22.1% | 0.0119 µM | 53.3% | 0.0168 µM | 0.0133 µM | 30.8% | 13.6% | 0.0393 µM | –
2 | CCCC1=NC2(CCCC2)C(=O)N1Cc1ccc(-c2cc(-c3cc(C)ccn3)ccc2-c2nn[nH]n2)cc1 [Example 116, 3-((5′-(4-methylpyridin-2-yl)-2′-(2H-tetrazol-5-yl)-[1,1′-biphenyl]-4-yl)methyl)-2-propyl-1,3-diazaspiro[4.4]non-1-en-4-one] | 27.7% | 0.0147 µM | 81.9% | 0.0172 µM | 0.0141 µM | 42.1% | 15.1% | 0.0397 µM | –
3 | Cc1ccnc(-c2ccc(-c3nn[nH]n3)c(-c3ccc(CN4C(=O)C5(CCCC5)N=C4C(C)C)cc3)c2)c1 [Example 118] | 21.8% | 0.102 µM | 78.7% | 0.173 µM | 0.066 µM | 50.0% | 17.1% | 0.155 µM | –
4 | COc1ccnc(-c2ccc(-c3nn[nH]n3)c(-c3ccc(CN4C(=O)C5(CCCC5)N=C4C4CC4)cc3)c2)c1 [Example 119, 2-cyclopropyl-3-((5′-(4-methoxypyridin-2-yl)-2′-(2H-tetrazol-5-yl)-[1,1′-biphenyl]-4-yl)methyl)-1,3-diazaspiro[4.4]non-1-en-4-one] | 21.8% | 0.0405 µM | 63.9% | 0.0539 µM | 0.0475 µM | 51.4% | 18.4% | 0.108 µM | –
5 | Cc1ccnc(-c2ccc(-c3nn[nH]n3)c(-c3ccc(CN4C(=O)C5(CCCC5)N=C4C4CC4)cc3)c2)c1 [Example 120, 2-cyclopropyl-3-((5′-(4-methylpyridin-2-yl)-2′-(2H-tetrazol-5-yl)-[1,1′-biphenyl]-4-yl)methyl)-1,3-diazaspiro[4.4]non-1-en-4-one] | 17.8% | 0.0184 µM | 50.1% | 0.0343 µM | 0.0125 µM | 44.5% | 20.7% | 0.0753 µM | –
6 | CCCCC1=NC2(CCOCC2)C(=O)N1Cc1ccc(-c2cc(-c3cccc(C)c3)ccc2-c2nn[nH]n2)cc1 [Example 155, 2-butyl-3-((3″-methyl-6′-(2H-tetrazol-5-yl)-[1,1′:3′,1″-terphenyl]-4-yl)methyl)-8-oxa-1,3-diazaspiro[4.5]dec-1-en-4-one] | – | > 100 µM | – | – | 0.0408 µM | 32.0% | – | > 100 µM | 0.0427 µM
7 | CCCCC1=NC2(CCOCC2)C(=O)N1Cc1ccc(-c2cc(-c3ccccc3)ccc2-c2nnn[nH]2)cc1 [Example 156] | – | > 100 µM | – | – | 0.0851 µM | 19.9% | 7.2% | 0.189 µM | 0.25 µM
8 | CCCCC1=NC2(CCOCC2)C(=O)N1Cc1ccc(-c2cc(-c3ccccc3O)ccc2-c2nnn[nH]2)cc1 [Example 157] | 16.5% | 0.0376 µM | – | – | 0.0303 µM | 44.7% | 11.4% | 0.0601 µM | 0.0611 µM
9 | CCCCC1=NC2(CCOCC2)C(=O)N1Cc1ccc(-c2cc(-c3cc(C)ccn3)ccc2-c2nn[nH]n2)cc1 [Example 171, 2-butyl-3-((5′-(4-methylpyridin-2-yl)-2′-(2H-tetrazol-5-yl)-[1,1′-biphenyl]-4-yl)methyl)-8-oxa-1,3-diazaspiro[4.5]dec-1-en-4-one] | 20.1% | 0.0309 µM | – | – | 0.0335 µM | 38.6% | 68.1% | 8.12 µM | 0.0684 µM
10 | CC1=NC2(CCOCC2)C(=O)N1Cc1ccc(-c2cc(-c3ccccc3)ccc2-c2nn[nH]n2)cc1 [Example 172, 3-((6′-(2H-tetrazol-5-yl)-[1,1′:3′,1″-terphenyl]-4-yl)methyl)-2-methyl-8-oxa-1,3-diazaspiro[4.5]dec-1-en-4-one] | – | > 10 µM | – | – | 0.196 µM | 27.1% | 9.4% | 0.782 µM | > 10 µM
11 | CCc1nc2c(C)cc(C)nc2n1Cc1cnc(-c2cc(-c3ccccc3)ccc2-c2nnn[nH]2)cn1 [Example 187, 3-((5-(4-(1H-tetrazol-5-yl)-[1,1′-biphenyl]-3-yl)pyrazin-2-yl)methyl)-2-ethyl-5,7-dimethyl-3H-imidazo[4,5-b]pyridine] | 8.4% | 0.168 µM | – | – | 0.0444 µM | 34.0% | 16.1% | 0.104 µM | 0.181 µM
12 | CCc1nc2c(C)cc(C)nc2n1Cc1ncc(-c2cc(-c3cccc(C)c3)ccc2-c2nnn[nH]2)cn1 [Example 188, 2-ethyl-5,7-dimethyl-3-((5-(3′-methyl-4-(1H-tetrazol-5-yl)biphenyl-3-yl)pyrimidin-2-yl)methyl)-3H-imidazo[4,5-b]pyridine] | 17.2% | 0.0331 µM | – | – | 0.0417 µM | 53.3% | 24.2% | 0.173 µM | 0.0246 µM
13 | CCc1nc2c(C)cc(C)nc2n1Cc1ncc(-c2cc(-c3ccccc3O)ccc2-c2nnn[nH]2)cn1 [Example 189] | 17.5% | 0.0321 µM | – | – | 0.0092 µM | 53.0% | 12.7% | 0.0184 µM | 0.0492 µM
14 | CCc1nc2c(C)cc(C)nc2n1Cc1ccc(-c2cc(-c3cccc(C)c3)ccc2-c2nnn[nH]2)nn1 [Example 191, 2-ethyl-5,7-dimethyl-3-((6-(3′-methyl-4-(1H-tetrazol-5-yl)biphenyl-3-yl)pyridazin-3-yl)methyl)-3H-imidazo[4,5-b]pyridine] | 24.2% | 0.101 µM | – | – | 0.0207 µM | 53.0% | 29.9% | 0.118 µM | 0.076 µM
15 | CCc1nc2c(C)cc(C)nc2n1Cc1ccc(-c2cc(-c3ccccn3)ccc2C(=O)O)cc1 [Example 192, 4′-((2-ethyl-5,7-dimethyl-3H-imidazo[4,5-b]pyridin-3-yl)methyl)-5-(pyridin-2-yl)biphenyl-2-carboxylic acid] | – | > 100 µM | – | – | 0.0943 µM | 45.1% | 11.1% | 0.223 µM | 0.127 µM
16 | CCc1nc2c(C)cc(C)nc2n1Cc1ccc(-c2cc(-c3cc(C)ccn3)ccc2C(=O)O)cc1 [Example 193] | 29.3% | 0.16 µM | – | – | 0.0522 µM | 60.7% | 25.0% | 0.132 µM | 0.133 µM
17 | CCc1nc2c(C)cc(C)nc2n1Cc1ccc(-c2cc(-c3cc(C)cc(C)n3)ccc2C(=O)O)cc1 [Example 194] | 16.2% | 0.278 µM | – | – | 0.0632 µM | 36.6% | 14.5% | 0.214 µM | 0.295 µM
18 | CCc1nc2c(C)cc(C)nc2n1Cc1cnc(-c2cc(-c3cccc(C)c3)ccc2-c2nnn[nH]2)nc1 [Example 197, 2-ethyl-5,7-dimethyl-3-((2-(3′-methyl-4-(1H-tetrazol-5-yl)biphenyl-3-yl)pyrimidin-5-yl)methyl)-3H-imidazo[4,5-b]pyridine] | – | > 100 µM | – | – | 0.282 µM | 20.2% | 5.7% | 0.493 µM | > 10 µM
19 | CCc1nc2c(C)cc(C)nc2n1Cc1ccc(-c2cc(-n3ncc4ccccc43)ccc2-c2nnn[nH]2)cc1 [Example 215, 3-((5′-(1H-Indazol-1-yl)-2′-(1H-tetrazol-5-yl)-[1,1′-biphenyl]-4-yl)methyl)-2-ethyl-5,7-dimethyl-3H-imidazo[4,5-b]pyridine] | 22.7% | 0.004 µM | – | – | 0.0051 µM | 46.1% | 17.3% | 0.0176 µM | 0.0041 µM
